Reference: publication PMC12566971, “Polyprenylated Acylphloroglucinols from Hypericum rochelii and Hypericum olympicum—Cytotoxic Effects on Non-Tumorigenic Cell Lines and Antibacterial Potential” (Pharmaceuticals, 2025)
pIC50: −log10 of the molar value. In brackets after ≈: the same amount, converted by molar mass. Several values for one entry are separate records, joined by “and”; a condition that tells them apart may be missing. Equal values may be shown once. Read-outs that look alike come from different tables or passages of the source.

Key:
Enterococcus faecalis = test: MIC and MBC evaluation (broth microdilution, agar plate assay); assay type: cell-based
Protocol: (§1) The MIC and MBC assessment on the pathogenic bacteria and the candidate probiotic lactic acid bacteria was carried out by the broth microdilution assay (BMD) and the agar plate assay, respectively, as described in [4]. The metabolic (dehydrogenase) activity of the lactic acid bacteria was assessed as described in [4].
(§2) P. aeruginosa PAO1 ATCC 15692 was purchased from the American Type Cell Culture Collection (ATCC, Manassas, VA, USA). S. mutans DSM 20523 was bought from the German Collection of Microorganisms and Cell Cultures (DSMZ GmbH, Braunschweig, Germany). All other bacteria and strains were purchased as described in [4].

Staphylococcus aureus = test: as above; assay type: cell-based
Protocol: as §1, §2

Streptococcus mutans = test: as above; assay type: cell-based
Protocol: as §1, §2

Streptococcus pyogenes = test: as above; assay type: cell-based
Protocol: as §1, §2

HaCaT = test: MTT assay for cytotoxicity; assay type: cell-based, human; conditions: for IC50: Homo sapiens, HaCaT
Protocol: (§3) The MTT assay was performed according to Annex C, ISO 10993-5 [56] as in [116]. The panel of non-tumorigenic cell lines consisted of one murine (CCL-1 fibroblasts, which are recommended as a standard for cytotoxicity evaluation in Annex C of ISO 10993-5 [56]) and four human cell lines—HaCaT (immortalized epidermal keratinocytes), HGF (gingival fibroblasts), HEK-293 (embryonic cells from kidney epithelium), and HEPG2 (hepatoblastoma). Although technically a cancer cell line, HEPG2 is non-tumorigenic and retains many hepatocyte-related features in its proteome and a high degree of morphological and functional differentiation, also being a stage one hepatoblastoma.
(§4) CCL-1 was purchased from ATCC and HaCaT and HGF were bought from CLS Cell Lines Service (GmbH, Eppelheim, Germany). HEK-293 and HEPG2 were obtained from DSMZ. The cell culture medium for HaCaT and HEPG2 was Dulbecco’s Modified Eagle Medium (DMEM) with 4.5 g/L glucose (DMEM-HA). For HGF it was DMEM/F-12 (DMEM-12-A, a 1:1 mixture of DMEM and Ham’s F-12 medium). The cell medium for CCL-1 and HEK-293 was Eagle’s Minimum Essential Medium (MEM) (MEM-A). Ten percent heat-inactivated fetal bovine serum (FBS) was added to all media but to the one for the CCL-1 cells, to which 10% heat-inactivated horse serum was added. All media were supplemented with 2 mM L-glutamine and Penicillin/Streptomycin (Pen/Strep, 100×). The cell culture media, sera, and additives were from Capricorn Scientific (Düsseldorf, Germany).
(§5) GraphPad Prism software version 9 (GraphPad Software Inc., San Diego, CA, USA) was used to calculate the IC50 values from the MTT assays as in [116], as well as the MTC values, and the ELISA standard curves. The MTC values are, according to ISO 10993-5, the maximum concentration at which at least 70% of the cells are viable (nonlin fit, range).

CCL-1 = test: MTT assay for cytotoxicity; assay type: cell-based, murine
Protocol: as §3, §4, §5

[1] = test system: Human embryonic kidney-293 (HEK-293); test: MTT assay for cytotoxicity; assay type: cell-based; conditions: for IC50: Homo sapiens, HEK293
Protocol: as §3, §4, §5

[2] = test system: Human gingival fibroblasts (HGF); test: MTT assay for cytotoxicity; assay type: cell-based; conditions: for IC50: Homo sapiens, Fibroblast
Protocol: as §3, §4, §5

[3] = test system: human total cytochrome P450 (CYP450); test: ELISA for total cytochrome P450 in HEPG2 cells; assay type: in vitro ADME; conditions: HEPG2, 24 h, concentrations inhibiting S. aureus
Protocol: The effect on CYP450 was tested using the ELISA method on the HEPG2 liver cell line. As mentioned, it has weak or absent expression of the CYP450 superfamily, e.g., CYP3A4, CYP1A2, etc., and that low basal activity makes it a good model for studies of CYP inducers. In addition, these cells have the advantage of immortalization due to their cancerous nature. The standard curves after the two ELISA tests (Figure S7) were prepared as a standard dose–response curve, also called a four-parameter logistic (4-PL) curve.
Human total cytochrome P450 was examined using the Human Cytochrome P450 ELISA Kit (MBS705506, MyBioSource, San Diego, CA, USA) according to the manufacturer’s instructions. HEPG2 cells were seeded at a concentration of 100,000 cells/mL in a 6-well plate, and the overnight culture was treated with selected Hypericum agents. After 24 h of exposure, the protocol was performed according to the kit instructions.
The test principle uses the sandwich quantitative enzyme immunoassay technique. A microplate was pre-coated with an antibody specific for cytochrome P450. Standards and samples were pipetted into the wells, and if cytochrome P450 molecules were present, they were bound by the immobilized antibody. […] The color development was stopped, and its intensity was measured on a microplate reader ELx800 (BioTek Instruments, Inc., Winooski, VT, USA).

[4] = test system: Methicillin-Resistant S. aureus (MRSA); conditions: ref [4],[29]; cited from earlier work
MRSA biofilm = conditions: assessed and published previously, ref [29], cited from earlier work
[5] = bactericidal if ≤ 4, bacteriostatic if > 4
[6] = at least 70% of cells viable, ISO 10993-5

CC(C)=CCCC1(C)C(CC=C(C)C)CC2C(=O)C1(C(=O)C(C)C)C(=O)C(CC=C(C)C)=C2O (centres unmarked) [Olympiforin B]
MBC (Enterococcus faecalis; Enterococcus faecalis): 55 µg/mL and 98 µM | MBC/MIC ratio, E. faecalis (Enterococcus faecalis; [5]): 14 | MBC (Staphylococcus aureus; Staphylococcus aureus, read-out: Minimal bactericidal concentration (MBC), Staphylococcus aureus): 19 µg/mL and 34 µM | MBC/MIC ratio, S. aureus (Staphylococcus aureus; [5]): 19 | MBC (Streptococcus mutans; Streptococcus mutans, read-out: MBC for S. mutans): 6.25 µg/mL and 11.1 µM | MIC (Streptococcus mutans; Streptococcus mutans, read-out: MIC for S. mutans): 3 µg/mL and 5.57 µM | MBC/MIC ratio, Streptococcus mutans (Streptococcus mutans; [5]): 2 | MBC (Streptococcus pyogenes; Streptococcus pyogenes): 60 µg/mL and 107 µM | MBC/MIC ratio, S. pyogenes (Streptococcus pyogenes; [5]): 15 | IC50 (HaCaT; MTT assay): 1.71 µg/mL | IC50 (HaCaT; converted to µM): 3.65 µM | Maximum tolerated concentration (MTC), HaCaT (HaCaT; concentration at which at least 70% of cells are viable, ISO 10993-5): 0.52 µg/mL | IC50 (CCL-1; Mus musculus, MTT assay): 5.5 µg/mL (≈ 11.7 µM) | Maximum tolerated concentration (MTC), CCL-1 (CCL-1; [6]): 4.79 µg/mL | IC50 ([1]; MTT assay): 0.67 µg/mL | IC50 ([1]; converted to µM): 1.43 µM | Maximum tolerated concentration (MTC), HEK-293 [1, 6]: 0.46 µg/mL | IC50 ([2]; MTT assay): 18 µg/mL | IC50 ([2]; converted to µM): 38.4 µM | Maximum tolerated concentration (MTC), HGF [2, 6]: 16.06 µg/mL | Induction of total CYP450 [3]: hardly induce | MIC on bacteria, MRSA [4]: 1 µg/mL (≈ 2.13 µM) | Median Biofilm Inhibitory Concentration (MBIC50), MRSA (MRSA biofilm): 0.05 (0.03 to 0.07) µg/mL | Minimum Biofilm Inhibitory Concentration (MBIC), MRSA (MRSA biofilm): 0.5 (1/2 × MIC) µg/mL and 1.07 µM | Minimum Biofilm Inhibitory Concentration (MBIC), MRSA (MRSA biofilm; listed as olympiforin B): 0.5 µg/mL | pIC50 (MRSA biofilm; read-out: Median Biofilm Inhibitory Concentration (MBIC50), MRSA): 6.92
